The values that follow come from patent US5252463A, “Clipsin, a chymotrypsin-like protease and method of using same” (The Du Pont Merck Pharmaceutical Company, priority 1990, dated 1993).

Where two headings read alike, the source gives them in different places. Starred links: 1 amine or outer side, 2 acyl side, 3 side chain; linkers in the order of their positions; H or OH if unused. Residues, ends and D or L forms follow the SMILES beside them. *: point of attachment. pNA = O=[N+]([O-])c1ccc(N*)cc1; Suc = O=C(CCC(=O)[*:2])[*:1]; MeOSuc = COC(=O)CCC(=O)*

The target in series [1] is T1, clipsin (Rattus norvegicus, UniProt P09650).
T1 sequence (P09650 21-260): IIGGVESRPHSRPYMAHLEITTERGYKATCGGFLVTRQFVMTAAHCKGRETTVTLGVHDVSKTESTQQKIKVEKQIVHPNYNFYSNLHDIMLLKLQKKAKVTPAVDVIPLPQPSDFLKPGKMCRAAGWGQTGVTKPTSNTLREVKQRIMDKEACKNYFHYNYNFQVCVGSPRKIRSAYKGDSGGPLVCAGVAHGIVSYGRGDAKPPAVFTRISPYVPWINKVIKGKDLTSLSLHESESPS
Kind of series: Enzymography: clipsin activity in 125I-gelatin-containing polyacrylamide gels. Also noted: Mr 25,000 band in gelatin enzymography. Type of series: biochemical. The note with it: for Inhibition of clipsin by peptide boronic acids (in words): 10 μM final concentrations.

The target in series [2] is T1, clipsin. Put plainly: In vitro chromogenic substrate assay: inhibition of Suc-Ala-Ala-Pro-Phe-p-nitroanilide hydrolysis by Mg2+ extract. In kind it is biochemical. Further details: Forebrains from 5-day-old rats were stripped of meninges and homogenized; from tissue; host or cells: forebrain of 5-day-old rats, membrane-associated, 1M MgCl2 extract (partially enriched). The conditions noted are these: for remaining activity at 10 µM: read-out: Relative Clipsin Activity (ΔOD as a percentage of the control value).

Series [3] has as its system T2, COC(=O)CCC(=O)N[C@@H](C)C(=O)N[C@@H](C)C(=O)N1CCC[C@H]1C(=O)N[C@@H](CCSC)C(=O)Nc1ccc([N+](=O)[O-])cc1.
T2 construct: mature chains cut from chymotrypsinogen A
Kind of series: Hydrolysis kinetics of tetrapeptide p-nitroanilide substrates by chymotrypsin. In kind it is biochemical, bovine. The conditions noted are these: other: chymotrypsin, pH 7.5, 50° C., 10% dimethyl sulfoxide. An excerpt: (§1) Correlation coefficients were greater than 0.99.

The subject of series [4] is T3, C[C@H](NC(=O)CCC(=O)O)C(=O)N[C@@H](C)C(=O)N1CCC[C@H]1C(=O)N[C@@H](Cc1ccccc1)C(=O)Nc1ccc([N+](=O)[O-])cc1.
T3 construct: mature chains cut from chymotrypsinogen A
The series is described as above. In kind it is biochemical, bovine. The note with it: other: chymotrypsin, pH 7.5, 50° C., 10% dimethyl sulfoxide.
Description: as §1

Series [5] concerns the target T4, human leukocyte cathepsin G (Homo sapiens, UniProt P08311).
T4 sequence (P08311 21-244): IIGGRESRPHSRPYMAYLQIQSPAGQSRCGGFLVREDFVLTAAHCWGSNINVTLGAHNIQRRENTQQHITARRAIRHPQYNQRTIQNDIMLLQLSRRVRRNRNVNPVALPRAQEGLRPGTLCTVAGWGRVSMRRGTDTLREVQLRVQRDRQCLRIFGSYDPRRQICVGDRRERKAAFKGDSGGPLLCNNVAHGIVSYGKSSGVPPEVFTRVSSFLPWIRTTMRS
Kind of series: Hydrolysis kinetics of tetrapeptide p-nitroanilide substrates by cathepsin G. In kind it is biochemical. The conditions noted are these: pH 7.5, 50° C.; for Km: 10% dimethyl sulfoxide; for kcat: α-1-AChy-titrated enzyme concentration.
Description: as §1

Series [6] has as its target T5, bovine chymotrypsin (Bos taurus, UniProt P00766).
T5 construct: mature chains cut from chymotrypsinogen A
Kind of series: Hydrolysis kinetics of tetrapeptide p-nitroanilide substrates by chymotrypsin. In kind it is biochemical. The note with it: ratio chymotrypsin/clipsin for the same substrate.
Description: as §1

Series [7] deals with major Coomassie Blue-detectable proteins from rat cortical membranes. Kind of series: Breakdown of rat cortical membrane proteins by Mg2+ extract, Coomassie Blue-stained gels. In kind it is biochemical. The conditions noted are these: inhibitor included in the incubation. As to the method: (§2) Mg^2+ extract at 60% (about 4.2 nM clipsin final) was incubated with a crude membrane fraction from adult rat cortex (2.8 mg/mL protein final; Siman et al., (1989) J. Neurosci. 9, 1579-1590). Proteolysis reactions were performed at 37° C. for 1 h before quenching the reactions with sodium dodecyl sulfate-containing electrophoresis sample buffer and heating the samples to 90° C. for 5 min. Overall breakdown of proteins were determined by Coomassie Blue staining of gels, whereas β-APP degradation was assessed by Western blotting of identical gels. β-APP was visualized as 110-130-kDa bands using antiserum 385 as described previously (Siman et al., (1989) Neuron 3, 275-285). β-APP-immunostained polypeptides on Western blots and the corresponding major Coomassie Blue-stained protein bands on sodium dodecyl sulfate-containing polyacrylamide gels were quantified by scanning laser densitometry.
We began looking for potential endogenous substrates of clipsin by incubating rat cortical membranes with Mg^2+ extract and measuring loss of the major protein bands following separation of the incubated samples by polyacrylamide gel electrophoresis. […] No other bands varied more than 25%, and no protease activity endogenous to cortical membranes could be detected when comparing 37° C. incubated membranes with parallel samples kept on ice.

The test system of another series is β-APP. Put plainly: β-APP degradation in rat cortical membranes by Mg2+ extract, Western blot with antiserum 385. The note with it: inhibitor included in the incubation. In kind it is biochemical. As to the method:
as §2
For orientation: Immunoblotting shows a protein as a band on a membrane.

Series [8] concerns the target T5, bovine chymotrypsin. The note with it: cited from earlier work.
In the next series the test system is human cathepsin G. The note with it: cited from earlier work.
For series [9], the target named is T1, clipsin. Put plainly: Association rate constant for α-1-AChy binding to clipsin, second-order conditions. Further details: Mr 25,000 band in gelatin enzymography. The note with it: equimolar clipsin and α-1-AChy. As to the method: The association rate constant for α-1-AChy binding to clipsin was determined under second-order conditions as described previously for α-1-AChy binding to other chymotrypsin-like proteases (Beatty et al., (1980) J. Biol. Chem. 255, 3931-3934). Using the titrated concentration of clipsin, an equimolar concentration of α-1-AChy was preincubated with Mg^2+ extract for various periods of time before addition of 2 mM substrate which stopped the reaction and was used to measure residual enzyme activity. The half-life time of reaction (t1/2) was calculated from a plot of .nu.^-1 versus t, and in turn used to calculate the association rate constant ^k assoc through the following: kassoc =1/t1/2 [Eγ], where [Eγ] stands for the total enzyme concentration (Beatty et al., (1980) J. Biol. Chem. 255, 3931-3934).
Using the titrated value for clipsin concentration in the Mg^2+ extract, we combined equimolar concentrations of clipsin and α-1-AChy to determine the association rate constant between these two proteins, as described previously (Equation 4 in Beatty et al., (1980) J. Biol. Chem. 255, 3931-3934). The ^k assoc was determined to be 2.9×10^6 M^-1 s^-1, a value falling between those determined previously for chymotrypsin and cathepsin G (Beatty et al., (1980) J. Biol. Chem. 255, 3931-3934).

In series [10] the target is T1, clipsin. Kind of series: Titration of clipsin activity in Mg2+ extract with α-1-AChy in vitro. Type of series: biochemical. The conditions noted are these: 20% Mg2+ extract. Also noted: Mr 25,000 band in gelatin enzymography.
The mark [11] stands for this setting: inhibitor 10 μM, 20% Mg2+ extract (1.4 nM clipsin), 2 mM Suc-Ala-Ala-Pro-Phe-p-nitroanilide, 1 h, 37° C., average of three.

On to `COC(=O)CCC(=O)N[C@@H](C)C(=O)N[C@@H](C)C(=O)N1CCC[C@H]1C(=O)N[C@H](B(O)O)C(C)C` [Sample 4, MeO-Suc-Ala-Ala-Pro-boro-Val-OH], for which the “Inhibition of clipsin by peptide boronic acids (in words)” value on clipsin [1] (enzymography) is “lack of inhibition”. The remaining activity at 10 µM at clipsin [2] (setting [11]) came out at 94%.

A word on the Km: it is the concentration of substrate that gives half-maximal velocity. What is called kcat is the number of substrate molecules converted per active site and unit of time at saturation. Regarding bovine chymotrypsin (Bos taurus), in series [3], the Km was determined as 1800 µM, the turnover number (kcat) was found to be 80 s⁻¹ and the kcat/Km is reported as 44,000 M^-1 S^-1. Further, in [4], the Michaelis constant (Km) was 130 µM, the kcat was determined as 120 s⁻¹ and the kcat/Km is 910,000 M^-1 S^-1.

Regarding `O=S(=O)(F)Cc1ccccc1` [phenylmethylsulfonyl fluoride], on clipsin [1], the “Inhibition of clipsin activity by class-specific protease inhibitors (in words)” value is “inhibited clipsin activity”.

For Bz-Pro-Phe-boro-Arg-OH [Sample 5], the “Inhibition of clipsin by peptide boronic acids (in words)” value at clipsin [1] (enzymography) was “only marginally”. Besides, the “Relative Clipsin Activity (ΔOD as a percentage of the control value)” value at clipsin [2] (setting [11]) worked out at 84%.

Turning to `COC(=O)CCC(=O)N[C@@H](C)C(=O)N[C@@H](C)C(=O)N1CCC[C@H]1C(=O)N[C@@H](CCSC)C(=O)Nc1ccc([N+](=O)[O-])cc1` [R'--Met-p-nitroanilide] (MeOSuc-AAPM-pNA), in series [5], the “kcat /Km” value is 4,300 M^-1 S^-1, the Km was 540 µM and the catalytic constant (kcat) worked out at 2.3 s⁻¹. Besides, the “kcat /Km of chymotrypsin relative to clipsin” value on bovine chymotrypsin [6] was 8.5 fold.

Consider `c1cnc2c(c1)ccc1cccnc12` [1,10-0-phenanthroline], for which the “Inhibition of clipsin activity by class-specific protease inhibitors (in words)” value on clipsin [1] (enzymography, 1 mM EDTA present) was “Lack of complete inhibition”.

For `COC(=O)CCC(=O)N[C@@H](C)C(=O)N[C@@H](C)C(=O)N1CCC[C@H]1C(=O)N[C@@H](Cc1ccccc1)B(O)O` [Sample 2, MeO-Suc-Ala-Ala-Pro-boro-Phe-OH], in [7], the “Blocking of the clipsin-induced decrease of the protein doublet (in words)” value is “could be blocked”. Moreover, the “Blocking of the clipsin-induced loss of β-APP immunoreactivity (in words)” value in the series with β-APP is given as “specifically blocked”. Further, the “Inhibition of clipsin by peptide boronic acids (in words)” value at clipsin [1] (enzymography) is reported as “preferentially inhibited”. The remaining activity at 10 µM at clipsin [2] (setting [11]) turned out to be 8%.

With `COC(=O)CCC(=O)N[C@@H](C)C(=O)N[C@@H](C)C(=O)N1CCC[C@H]1C(=O)N[C@@H](C)B(O)O` [Sample 3, MeO-Suc-Ala-Ala-Pro-boro-Ala-OH], the “Inhibition of clipsin by peptide boronic acids (in words)” value on clipsin [1] (enzymography) is listed as “lack of inhibition”. At clipsin [2] (setting [11]), the remaining activity at 10 µM turned out to be 97%.

Turning to `CCN1C(=O)C=CC1=O` [N-ethylmaleimide], the “Inhibition of clipsin activity by class-specific protease inhibitors (in words)” value at clipsin [1] is “not inhibited”.

As to `O=C(O)CI` [iodoacetic acid], at clipsin [1], the “Inhibition of clipsin activity by class-specific protease inhibitors (in words)” value is reported as “not inhibited”.

With `C[C@H](NC(=O)CCC(=O)O)C(=O)N[C@@H](C)C(=O)N1CCC[C@H]1C(=O)N[C@@H](Cc1ccccc1)C(=O)Nc1ccc([N+](=O)[O-])cc1` [R--Phe-p-nitroanilide, Suc-Ala-Ala-Pro-Phe-p-nitroanilide] (Suc-AAPF-pNA), in series [5], the “kcat /Km” value is recorded as 4,800 M^-1 S^-1, the Michaelis-Menten constant (Km) was 3300 µM and the catalytic constant (kcat) turned out to be 16 s⁻¹. For the same molecule, the “kcat /Km of chymotrypsin relative to clipsin” value on bovine chymotrypsin [6] came to 16 fold.

B1: α-1-antichymotrypsin (protein, UniProt P01011 24-423, looked up)
Alpha-1-antichymotrypsin: HPNSPLDEENLTQENQDRGTHVDLGLASANVDFAFSLYKQLVLKAPDKNVIFSPLSISTALAFLSLGAHNTTLTEILKGLKFNLTETSEAEIHQSFQHLLRTLNQSSDELQLSMGNAMFVKEQLSLLDRFTEDAKRLYGSEAFATDFQDSAAAKKLINDYVKNGTRGKITDLIKDLDSQTMMVLVNYIFFKAKWEMPFDPQDTHQSRFYLSKKKWVMVPMMSLHHLTIPYFRDEELSCTVVELKYTGNASALFILPDQDKMEEVEAMLLPETLKRWRDSLEFREIGELYLPKFSISRDYNLNDILLQLGIEEAFTSKADLSGITGARNLAVSQVVHKAVLDVFEEGTEASAATAVKITLLSALVETRTIVRFNRPFLMIIVPTDTQNIFFMSKVTNPKQA
On to B1, for which, in the series with bovine chymotrypsin [8], the “kassoc reported for α-1-AChy binding to bovine chymotrypsin” value was 60000 M⁻¹ s⁻¹. Besides, the “kassoc reported for α-1-AChy binding to human cathepsin G” value in the series with human cathepsin G is 5.1e+07 M⁻¹ s⁻¹. In addition, the “kassoc, association rate constant of α-1-AChy with clipsin” value in the series with clipsin [9] amounted to 2.9e+06 M⁻¹ s⁻¹. Besides, the “α-1-AChy concentration producing rapid inhibition of clipsin activity” value with clipsin [10] is no less than 3.5 nM. Further, the “α-1-AChy necessary to inhibit 100% clipsin activity (titration point)” value with clipsin [10] (titration curve at 120 min preincubation) is listed as 1.4 nM. In addition, the “Inhibition of clipsin activity in vitro (in words)” value with clipsin [2] (pilot experiments, […]) is given as “effective inhibitor”.
